Experimental findings from patent US9617310B2 (priority 2013, dated 2017) are described below.

Format in all cases: cell-based
The test system of assay [1] is genotype 1b wild-type transient HCV replicon in Huh-7-derived cells. The assay is described as follows: Transient-transfected HCV replicon, genotype 1b wild type. The following applies: Hepatitis C virus; transient-transfected replicon genotype 1b wild type, 72 h; read-out: EC50 1B WT. In general terms: In antiviral work, replicon cells carry a viral genome segment that copies itself.

For assay [2], the system named is genotype 3a stable HCV replicon (S52) in Huh-7-derived cells. The assay is described as follows: Stable subgenomic HCV replicon, genotype 3a, Renilla luciferase. The following applies: Hepatitis C virus, 72 h, read-out: EC50 3A RLUC. The method, then: (§1) Antiviral potency (EC50) was determined in both stable subgenomic HCV replicon cell lines and transient-transfected HCV replicon cells. The term half maximal effective concentration (EC50) refers to the concentration of a drug which induces a response halfway between the baseline and maximum after the exposure time specified below.
(§2) Stable subgenomic HCV replicons for genotype 1a, 1b, 2a, 3a, and 4a were established in Huh-7-derived cells as described by Lohmann et al (Lohmann V, Korner F, Koch J, et al Replication of subgenomic hepatitis C virus RNAs in a hepatoma cell line. Science 1999; 285:119-3). Each stable cell line contains a bicistronic HCV replicon that encodes a humanized Renilla luciferase (hRLuc) reporter gene fused to a selectable neomycin-resistance gene, followed by an EMCV IRES and the NS3-NS5B coding region of HCV. […] Luciferase activity was measured as a marker for intracellular HCV replication levels.
(§3) The genotype 1a stable replicon was derived from the H77 HCV strain and contained adaptive mutations P1496L and S2204I. The genotype 1b stable replicon was derived from the Con1 HCV strain and contained adaptive mutations E1202G, T1280I, and K1846T. […] The genotype 3a stable replicon was derived from the S52 HCV strain and contained adaptive mutations P1121 L, A1198T and S2210I (equivalent to S2204I in genotype 1). The genotype 4a stable replicon was derived from the ED43 HCV strain and contained adaptive mutations Q1691R and S2204I. All replicon cell lines were propagated in Huh-7-derived cells and maintained in Dulbecco's modified Eagle's Medium (DMEM) supplemented with 10% fetal bovine serum (FBS) and 0.5 mg/ml G418.
(§4) To perform EC50 assays, cells from each HCV replicon were dispensed into 384-well plates. Compounds were dissolved in DMSO at a concentration of 10 mM and diluted in DMSO using an automated pipetting instrument. Three-fold serially diluted compounds were directly added to the cells using an automated instrument. DMSO was used as a negative (solvent; no inhibition) control, and a combination of three HCV inhibitors including a protease inhibitor; an NS5A inhibitor and a nucleoside inhibitor was used at concentrations >100×EC50 as a positive control (100% inhibition). Seventy-two hours later, cells were lysed and Renilla luciferase activity were quantified as recommended by the manufacturer (Promega-Madison, Wis.). Non-linear regression was performed to calculate […], values.

In assay [3] the test system is genotype 2a stable HCV replicon (JFH-1) in Huh-7-derived cells. The assay is described as follows: Stable subgenomic HCV replicon, genotype 2a, Renilla luciferase. The following applies: Hepatitis C virus, stable replicon genotype 2a, 72 h, read-out: EC50 2A RLUC. The method, then: as §1, §2, §3, §4
The subject of assay [4] is genotype 3a transient HCV replicon (S52) in Huh-7-derived cells. Put plainly: Transient-transfected HCV replicon, genotype 3a wild type. The following applies: Hepatitis C virus; transient-transfected replicon genotype 3a wild type, 72 h; read-out: EC50 3A WT.
For assay [5], the system named is NS3/4a protease inhibitor resistant variant D168A in genotype 1b transient HCV replicon. Put plainly: Transient-transfected HCV replicon, genotype 1b D168A. The following applies: Hepatitis C virus, 72 h, read-out: EC50 1B D168A.
For assay [6], the system named is NS3/4a protease inhibitor resistant variant R155K in genotype 1a transient HCV replicon. Put plainly: Transient-transfected HCV replicon, genotype 1a R155K. The following applies: Hepatitis C virus, 72 h, read-out: EC50 1A R155K.
The subject of assay [7] is genotype 4a stable HCV replicon (ED43) in Huh-7-derived cells. Put plainly: Stable subgenomic HCV replicon, genotype 4a, Renilla luciferase. The following applies: Hepatitis C virus, 72 h, read-out: EC50 4A RLUC. The method, then: as §1, §2, §3, §4
The subject of assay [8] is genotype 1a (H77) wild-type transient HCV replicon in Huh-7-derived cells. Put plainly: Transient-transfected HCV replicon, genotype 1a wild type. The following applies: Hepatitis C virus; transient-transfected replicon genotype 1a wild type, 72 h; read-out: EC50 1A WT.
Assay [9] has as its system genotype 1a stable HCV replicon (H77) in Huh-7-derived cells. Put plainly: Stable subgenomic HCV replicon, genotype 1a, Renilla luciferase. The following applies: Hepatitis C virus, stable replicon genotype 1a, 72 h, read-out: EC50 1A RLUC. How it is done:
as §1, §2, §3, §4

The EC50 is the concentration giving half of the maximal effect. For `COc1ccc2nc3c(nc2c1)O[C@@H]1C[C@@H](C(=O)N[C@]2(C(=O)NS(=O)(=O)C4CC4)C[C@H]2C(F)F)N(C1)C(=O)[C@H](C(C)(C)C)NC(=O)O[C@@H]1C[C@@H]2C[C@@H]2[C@H]1CCCCC3(F)F` (racemic) [Example 9, (1aS,2aR,6S,9S,11R,23aR,23bS)-6-tert-butyl-N-[(1R,2R)-1-[(cyclopropylsulfonyl)carbamoyl]-2-(difluoromethyl)cyclopropyl]-19,19-difluoro-15-methoxy-4,7-dioxo-1a,2,2a,4,5,6,7,10,11,19,20,21,22,23,23a,23b-hexadecahydro-1H,9H-8,11-methanocyclopropa[4′,5′]cyclopenta[1′,2′:18,19][1,10,3,6]dioxadiazacyclononadecino[11,12-b]quinoxaline-9-carboxamide], the EC50 was determined as 0.71 nM in assay [1]; 6.6 nM in [2]; 2.3 nM in assay [3]; 2.5 nM in [4]; 1.1 nM in assay [5]; 1.1 nM in assay [6]. The EC50 in assay [7] turned out to be 1.4 nM; in [8], 1.3 nM; in [9] it was 1.7 nM.

With `CC(C)(C)[C@@H]1NC(=O)O[C@@H]2C[C@@H]3C[C@@H]3[C@H]2CCCCC(F)(F)c2nc3cc(F)c(F)cc3nc2O[C@@H]2C[C@@H](C(=O)N[C@]3(C(=O)NS(=O)(=O)C4CC4)C[C@H]3C(F)F)N(C2)C1=O` (racemic) [Example 15, (1aS,2aR,6S,9S,11R,23aR,23bS)-6-tert-butyl-N-[(1R,2R)-1-[(cyclopropylsulfonyl)carbamoyl]-2-(difluoromethyl)cyclopropyl]-15,16,19,19-tetrafluoro-4,7-dioxo-1a,2,2a,4,5,6,7,10,11,19,20,21,22,23,23a,23b-hexadecahydro-1H,9H-8,11-methanocyclopropa[4′,5′]cyclopenta[1′,2′:18,19][1,10,3,6]dioxadiazacyclononadecino[11,12-b]quinoxaline-9-carboxamide], the EC50 in assay [1] came to 1.3 nM; in [2], 30 nM; in assay [3], 3.3 nM; in assay [4], 11 nM; in assay [5], 4.7 nM; in [6], 1.2 nM. The results for the EC50 in assay [7], in assay [8] and in [9] were 2.6 nM, 1.6 nM and 3.5 nM, respectively.

With `COc1ccc2nc3c(nc2c1)O[C@@H]1C[C@@H](C(=O)N[C@]2(C(=O)NS(=O)(=O)C4CC4)C[C@H]2C(F)F)N(C1)C(=O)[C@H](C(C)(C)C)NC(=O)O[C@@H]1C[C@@H]2C[C@@H]2[C@H]1CCCCC3` [Example 1, (1aS,2aR,6S,9S,11R,23aR,23bS)-6-tert-butyl-N-[(1R,2R)-1-[(cyclopropylsulfonyl)carbamoyl]-2-(difluoromethyl)cyclopropyl]-15-methoxy-4,7-dioxo-1a,2,2a,4,5,6,7,10,11,19,20,21,22,23,23a,23b-hexadecahydro-1H,9H-8,11-methanocyclopropa[4′,5′]cyclopenta[1′,2′:18,19][1,10,3,6]dioxadiazacyclononadecino[11,12-b]quinoxaline-9-carboxamide], the EC50 in assay [1] is 0.61 nM; in assay [2], 23 nM; in [3], 2.5 nM; in assay [4], 7.1 nM; in [5], 4.6 nM; in assay [6], 1.5 nM. The EC50 is 1 nM in assay [7], 1 nM in assay [8] and 1.1 nM in assay [9].

With `COc1ccc2nc3c(nc2c1)O[C@@H]1C[C@@H](C(=O)N[C@]2(C(=O)NS(=O)(=O)C4(C)CC4)C[C@H]2C(F)F)N(C1)C(=O)[C@H](C(C)(C)C)NC(=O)O[C@@H]1C[C@@H]2C[C@@H]2[C@H]1CCCCC3` [Example 2, (1aS,2aR,6S,9S,11R,23aR,23bS)-6-tert-butyl-N-[(1R,2R)-2-(difluoromethyl)-1-{[(1-methylcyclopropyl)sulfonyl]carbamoyl}cyclopropyl]-15-methoxy-4,7-dioxo-1a,2,2a,4,5,6,7,10,11,19,20,21,22,23,23a,23b-hexadecahydro-1H,9H-8,11-methanocyclopropa[4′,5′]cyclopenta[1′,2′18,19][1,10,3,6]dioxadiazacyclononadecino[11,12-b]quinoxaline-9-carboxamide], the EC50 stood at 0.74 nM in [1]; 17 nM in assay [2]; 1.82 nM in [3]; 5.1 nM in [4]; 3.2 nM in [5]; 1.4 nM in [6]. Also, the results for the EC50 in assay [7], in assay [8] and in [9] were 1.2 nM, 1.1 nM and 1.1 nM, respectively.

In the case of `COc1ccc2nc3c(nc2c1)O[C@@H]1C[C@@H](C(=O)N[C@]2(C(=O)NS(=O)(=O)C4CC4)C[C@H]2CC(F)F)N(C1)C(=O)[C@H](C(C)(C)C)NC(=O)O[C@@H]1C[C@@H]2C[C@@H]2[C@H]1CCCCC3` [Example 3, (1aS,2aR,6S,9S,11R,23aR,23bS)-6-tert-butyl-N-[(1R,2S)-1-[(cyclopropylsulfonyl)carbamoyl]-2-(2,2-difluoroethyl)cyclopropyl]-15-methoxy-4,7-dioxo-1a,2,2a,4,5,6,7,10,11,19,20,21,22,23,23a,23b-hexadecahydro-1H,9H-8,11-methanocyclopropa[4′,5′]cyclopenta[1′,2′:18,19][1,10,3,6]dioxadiazacyclononadecino[11,12-b]quinoxaline-9-carboxamide], the EC50 came to 2.9 nM in assay [1]; 194 nM in assay [2]; 15 nM in assay [3]; 67 nM in assay [4]; 50 nM in assay [5]; 11 nM in assay [6]. Further, the figures for the EC50 in assay [7], in assay [8] and in assay [9] were 3.4 nM, 5.1 nM and 3.8 nM, respectively.

Turning to `COc1ccc2nc3c(nc2c1)O[C@@H]1C[C@@H](C(=O)N[C@]2(C(=O)NS(=O)(=O)C4CC4)C[C@H]2C(F)F)N(C1)C(=O)[C@H](C(C)(C)C)NC(=O)O[C@@H]1[C@H]2CC[C@H](C2)[C@H]1CCCCC3` [Example 4, (1R,4S,4aR,8S,11S,13R,25aR)-8-tert-butyl-N-[(1R,2R)-1-[(cyclopropylsulfonyl)carbamoyl]-2-(difluoromethyl)cyclopropyl]-17-methoxy-6,9-dioxo-2,3,4,4a,6,7,8,9,12,13,21,22,23,24,25,25a-hexadecahydro-1H,11H-1, 4:10,13-dimethanoquinoxalino[2,3-k][1,10,3,6]benzodioxadiazacyclononadecine-11-carboxamide], the EC50 was determined as 1.2 nM in assay [1]; 429 nM in [2]; 18 nM in [3]; 63 nM in [4]; 112 nM in [5]; 27 nM in assay [6]. The EC50 came out at 3.1 nM in [7], 2.6 nM in [8] and 4.3 nM in assay [9].
